Results reported in BindingDB's records for doi:10.1016/j.bioorg.2015.10.003 (University of Technology Sydney, 2015).

Target: Polyphenol oxidase 1 [N65D,S176D,K211T,P277A,P406L] (Agaricus bisporus var. bisporus (strain H97 / ATCC MYA-4626 / FGSC 10389), UniProt Q00024, K211T/N65D/P277A/P406L/S176D)
Test: Enzymatic Activity Assay
Settings: pH 6.8
Protocol: The mushroom tyrosinase inhibition activity of hydroxy naphthylchalcone compounds was measured using L-DOPA as substrate. The activity assay used 3 ml of reaction medium containing 0.5 mM L-DOPA in 50 mM Na2HPO4-NaH2PO4 buffer (pH 6.8). […] The substrate reaction progress curve was analyzed to obtain the reaction rate constants. The reaction was carried out at 30 °C and pH 6.8.

SMILES | IC50 | Ki
O=C(/C=C/c1ccc(O)c([N+](=O)[O-])c1)c1cc2ccccc2cc1O [(2E)-1-(3-hydroxynaphthalen-2-yl)-3-(4-hydroxy-3-nitrophenyl) prop-2-en-1-one (4b)] | 25.6 µM | 11.9 µM
O=C(/C=C/c1ccc(O)cc1O)c1cc2ccccc2cc1O [(2E)-3-(2,4-dihydroxyphenyl)-1-(3-hydroxynaphthalen-2-yl) prop-2-en-1-one (2b)] | 14.4 µM | 4.5 µM
O=C(/C=C/c1cc(O)ccc1O)c1cc2ccccc2cc1O [(2E)-3-(2,5-dihydroxyphenyl)-1-(3-hydroxynaphthalen-2-yl) prop-2-en-1-one (1b)] | 20.4 µM | 10.8 µM
O=C(/C=C/c1cc(O)cc(O)c1)c1cc2ccccc2cc1O [(2E)-3-(3,5-dihydroxyphenyl)-1-(3-hydroxynaphthalen-2-yl)prop-2-en-1-one (5b)] | 10.4 µM | 3.8 µM
O=C(/C=C/c1ccc([N+](=O)[O-])cc1O)c1cc2ccccc2cc1O [(2E)-1-(3-hydroxynaphthalen-2-yl)-3-(2-hydroxy-4-nitrophenyl) prop-2-en-1-one (3b)] | 22.9 µM | 11.2 µM
